Biological target: CDK12 (Homo sapiens, UniProt Q9NYV4)
Test: Biochemical assay for CDK12 (LANCE TR-FRET, IC50 determination)
Conditions: for IC50: CDK12, IC50 class, read-out: IC50 μM (in range); for inhibition at 10 µM: read-out: CDK12 % Inhibition @ 10 μM
Description: Biochemical Assay for CDK12 (IC50 Determination):
The inhibitory activity of the test compounds was assessed by the LANCE TR-FRET assay, which detects the ATP-dependent phosphorylation of an ULight-4E-BP1 (Thr37/Thr46) substrate peptide (100 nM) by CDK12 (30 nM). Briefly, the enzyme reaction was run in reaction buffer (25 mM HEPES (pH 7.5), 10 mM MgCl2, […], 0.01% Triton x, 1 mM DTT). The assay was performed in 384-well plate format. The end concentration of the ATP substrate was […], and that of the ULight-4E-BP1 (Thr37/Thr46) substrate peptide was 100 nM, and of CDK12 was 30 nM. Pre-incubation of the compound and enzyme was performed for 60 min at room temperature. After 60 min incubation at room temperature, the reaction was terminated by the addition of 40 mM EDTA and 0.5 nM Eu-labeled anti-phospho-eIF4E-binding protein (Thr37/46) antibody in LANCE detection buffer. Time-resolved fluorescence (excitation, 320 nm; emission donor, 615 nm; emission acceptor, 665 nm) was monitored by using 2030 multilabel reader Victor5 (PerkinElmer). The Fluorescence emission of the samples were measured and the ratio was plotted against the compound concentration to generate the dose response curve. The IC50 values were derived by fitting a sigmoidal dose-response curve to a plot of assay readout over inhibitor concentration. All fits were computed with the program Prism 5.03 (Graph Pad Software, San Diego, CA). The % inhibition values at […] were calculated with respect to enzyme activity.

CDK12, sequence (Q9NYV4 whole entry): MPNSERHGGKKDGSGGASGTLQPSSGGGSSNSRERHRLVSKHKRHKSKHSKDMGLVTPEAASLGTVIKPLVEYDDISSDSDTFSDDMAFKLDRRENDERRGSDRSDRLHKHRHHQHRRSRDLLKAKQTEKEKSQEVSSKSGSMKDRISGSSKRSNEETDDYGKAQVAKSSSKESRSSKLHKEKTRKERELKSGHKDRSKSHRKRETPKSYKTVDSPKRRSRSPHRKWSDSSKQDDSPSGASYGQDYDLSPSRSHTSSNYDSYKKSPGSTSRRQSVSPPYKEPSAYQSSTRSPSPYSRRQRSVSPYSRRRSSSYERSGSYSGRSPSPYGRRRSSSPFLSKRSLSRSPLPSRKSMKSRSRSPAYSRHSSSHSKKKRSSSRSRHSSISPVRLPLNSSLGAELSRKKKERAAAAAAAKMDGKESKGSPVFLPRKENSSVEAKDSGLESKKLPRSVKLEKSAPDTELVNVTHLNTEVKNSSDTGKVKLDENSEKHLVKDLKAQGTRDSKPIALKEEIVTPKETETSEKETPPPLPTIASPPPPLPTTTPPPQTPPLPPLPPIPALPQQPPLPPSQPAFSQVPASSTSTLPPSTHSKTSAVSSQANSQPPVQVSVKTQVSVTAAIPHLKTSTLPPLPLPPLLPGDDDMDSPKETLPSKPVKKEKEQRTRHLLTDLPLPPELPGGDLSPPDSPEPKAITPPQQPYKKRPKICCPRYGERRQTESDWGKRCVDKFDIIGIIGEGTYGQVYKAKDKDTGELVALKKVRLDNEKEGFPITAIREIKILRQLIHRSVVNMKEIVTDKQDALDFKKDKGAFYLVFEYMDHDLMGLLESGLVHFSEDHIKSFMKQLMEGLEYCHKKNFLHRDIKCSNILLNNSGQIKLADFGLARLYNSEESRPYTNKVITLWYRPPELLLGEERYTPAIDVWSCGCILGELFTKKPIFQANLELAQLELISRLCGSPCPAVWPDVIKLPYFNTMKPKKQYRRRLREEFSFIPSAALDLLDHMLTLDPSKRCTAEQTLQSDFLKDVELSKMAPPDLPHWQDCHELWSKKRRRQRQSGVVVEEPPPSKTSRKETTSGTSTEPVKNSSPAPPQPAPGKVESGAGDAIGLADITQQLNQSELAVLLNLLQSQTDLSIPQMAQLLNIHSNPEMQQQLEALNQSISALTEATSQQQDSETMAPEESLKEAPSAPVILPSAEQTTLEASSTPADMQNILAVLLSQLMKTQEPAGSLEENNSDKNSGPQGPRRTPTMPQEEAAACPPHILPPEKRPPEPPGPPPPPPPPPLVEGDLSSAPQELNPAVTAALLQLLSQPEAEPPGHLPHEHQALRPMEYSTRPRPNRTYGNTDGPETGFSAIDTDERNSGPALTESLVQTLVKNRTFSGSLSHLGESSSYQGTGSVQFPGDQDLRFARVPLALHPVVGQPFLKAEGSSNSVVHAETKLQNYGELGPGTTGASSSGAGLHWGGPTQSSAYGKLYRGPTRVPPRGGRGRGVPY
CDK12, sequence (O75909 whole entry partner): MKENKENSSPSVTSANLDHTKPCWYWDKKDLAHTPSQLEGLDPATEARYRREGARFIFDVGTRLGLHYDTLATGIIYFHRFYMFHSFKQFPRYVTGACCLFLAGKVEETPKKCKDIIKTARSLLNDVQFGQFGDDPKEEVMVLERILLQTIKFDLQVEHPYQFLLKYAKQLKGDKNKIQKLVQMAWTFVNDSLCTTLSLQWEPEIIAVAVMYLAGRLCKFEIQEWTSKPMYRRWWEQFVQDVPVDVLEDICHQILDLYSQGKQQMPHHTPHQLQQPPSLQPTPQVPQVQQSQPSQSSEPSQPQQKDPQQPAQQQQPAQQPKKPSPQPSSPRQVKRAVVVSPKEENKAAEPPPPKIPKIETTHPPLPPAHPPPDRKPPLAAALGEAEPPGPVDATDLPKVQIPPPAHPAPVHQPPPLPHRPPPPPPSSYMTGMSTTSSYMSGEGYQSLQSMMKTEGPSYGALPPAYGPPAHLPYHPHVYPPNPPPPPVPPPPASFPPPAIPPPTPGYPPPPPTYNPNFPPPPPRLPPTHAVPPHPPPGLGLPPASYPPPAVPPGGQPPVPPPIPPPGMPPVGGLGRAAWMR

Structure (SMILES)	IC50 [µM]	inhibition at 10 µM (compound at 10 μM) [%]	CDK12 % Inhibition @ 10 μM (compound at 10 μM, 10 µM) [%]
CN1CC[C@@H](Oc2cc(NC(=O)Cc3ccc(C4CCN(C#N)CC4)nc3)ncc2Cl)C1 [Compound 119, (R)-N-(5-chloro-4-((1-methylpyrrolidin-3-yl)oxy)pyridin-2-yl)-2-(6-(1-cyanopiperidin-4-yl)pyridin-3-yl)acetamide]	> 0.1	78	
CN1CCCC1COc1cc(NC(=O)Cc2ccc(C3=CCCN(C#N)C3)nc2)ncc1Cl (centres unmarked) [Compound 55, N-(5-chloro-4-((1-methylpyrrolidin-2-yl)methoxy)pyridin-2-yl)-2-(1′-cyano-1′,2′,5′,6′-tetrahydro-[2,3′-bipyridin]-5-yl)acetamide]	> 0.1	86	
N#CN1CC=C(c2ccc(CC(=O)Nc3cc(OC4CCC4)c(Cl)cn3)cn2)CC1 [Compound 28, N-(5-chloro-4-cyclobutoxypyridin-2-yl)-2-(1′-cyano-1′,2′,3′,6′-tetrahydro-[2,4′-bipyridin]-5-yl)acetamide]	< 0.01	95	
CNC(=O)C(C)Oc1cc(NC(=O)Cc2ccc(C3=CCN(C#N)CC3)nc2)ncc1Cl (centres unmarked) [Compound 1, 2-((5-chloro-2-(2-(1′-cyano-1′,2′,3′,6′-tetrahydro-[2,4′-bipyridin]-5-yl)acetamido)pyridin-4-yl)oxy)-N-methylpropanamide]	< 0.01	92	
N#CN1CCCC(c2ccc(CC(=O)Nc3cc(O[C@H]4CCOC4)c(Cl)cn3)cn2)C1 (single isomer, unassigned) [Compound 96]	> 0.1	91	
CN1CCC[C@@H](Oc2cc(NC(=O)Cc3ccc(C4CCN(C#N)CC4)nc3)ncc2Cl)C1 [Compound 126, (R)-N-(5-chloro-4-((1-methylpiperidin-3-yl)oxy)pyridin-2-yl)-2-(6-(1-cyanopiperidin-4-yl)pyridin-3-yl)acetamide]	> 0.1	52	
COc1cc(NC(=O)Cc2ccc(C3=CCCN(C#N)C3)c(OC)c2)ncc1Cl [Compound 116, N-(5-chloro-4-methoxypyridin-2-yl)-2-(4-(1-cyano-1,2,5,6-tetrahydropyridin-3-yl)-3-methoxyphenyl)acetamide]		23	
COc1cc(NC(=O)Cc2ccc(-c3cc(N4CC(O)C4)cc(C#N)n3)nc2)ncc1Cl [Compound 182, N-(5-chloro-4-methoxypyridin-2-yl)-2-(6′-cyano-4′-(3-hydroxyazetidin-1-yl)-[2,2′-bipyridin]-5-yl)acetamide]	> 0.1	75	
COc1cc(NC(=O)Cc2ccc(C3=CC4CN(C#N)CC4C3)cc2)ncc1Cl (centres unmarked) [Compound 115, N-(5-chloro-4-methoxypyridin-2-yl)-2-(4-(2-cyano-1,2,3,3a,4,6a-hexahydrocyclopenta[c]pyrrol-5-yl)phenyl)acetamide]	0.01 to 0.1	98	
CN1CCC[C@H](Oc2cc(NC(=O)Cc3ccc(C4=CCCN(C#N)C4)nc3)ncc2Cl)C1 [Compound 47, (S)-N-(5-chloro-4-((1-methylpiperidin-3-yl)oxy)pyridin-2-yl)-2-(1′-cyano-1′,2′,5′,6′-tetrahydro-[2,3′-bipyridin]-5-yl)acetamide]	0.01 to 0.1	85	
COc1cc(NC(=O)Cc2ccc(-c3ccc(C#N)c(F)c3)nc2)ncc1Cl [Compound 149, N-(5-chloro-4-methoxypyridin-2-yl)-2-(6-(4-cyano-3-fluorophenyl)pyridin-3-yl)acetamide]		54	
COc1cc(NC(=O)Cc2ccc(-c3ccc(CN(C)C#N)nc3)nc2)ncc1Cl [Compound 131, N-(5-chloro-4-methoxypyridin-2-yl)-2-(6′-((N-methylcyanamido)methyl)-[2,3′-bipyridin]-5-yl)acetamide]	0.01 to 0.1	93	
CN1CCC(Oc2cc(NC(=O)Cc3ccc(C4CCN(C#N)CC4)nc3)ncc2Cl)CC1 [Compound 129, N-(5-chloro-4-((1-methylpiperidin-4-yl)oxy)pyridin-2-yl)-2-(6-(1-cyanopiperidin-4-yl)pyridin-3-yl)acetamide]	0.01 to 0.1	94	

Continued, values first:

IC50 [µM]	inhibition at 10 µM (compound at 10 μM) [%]	CDK12 % Inhibition @ 10 μM (compound at 10 μM, 10 µM) [%]	Structure (SMILES)
0.01 to 0.1	98		N#CN1CCC=C(c2ccc(CC(=O)Nc3ccc(F)cn3)cn2)C1 [Compound 103, 2-(1′-cyano-1′,2′,5′,6′-tetrahydro-[2,3′-bipyridin]-5-yl)-N-(5-fluoropyridin-2-yl)acetamide]
< 0.01	102		COc1cc(NC(=O)C(C)c2ccc(C3=CCN(C#N)CC3)nc2)ncc1Cl (single isomer, unassigned) [Compound 52]
< 0.01	89		COc1cc(NC(=O)Cc2cnc(C3=CCN(C#N)CC3)c(OC)c2)ncc1Cl [Compound 120, N-(5-chloro-4-methoxypyridin-2-yl)-2-(1′-cyano-3-methoxy-1′,2′,3′,6′-tetrahydro-[2,4′-bipyridin]-5-yl)acetamide]
0.01 to 0.1	90		COc1cc(NC(=O)Cc2ccc(-c3cc(N(C)CCN(C)C)cc(C#N)n3)nc2)ncc1Cl [Compound 173]
< 0.01	92		CC1CC(Oc2cc(NC(=O)Cc3ccc(C4=CCCN(C#N)C4)nc3)ncc2Cl)CCN1C (centres unmarked) [Compound 63, N-(5-chloro-4-((1,2-dimethylpiperidin-4-yl)oxy)pyridin-2-yl)-2-(1′-cyano-1′,2′,5′,6′-tetrahydro-[2,3′-bipyridin]-5-yl)acetamide]
0.01 to 0.1	79		N#Cc1cc(-c2ccc(CC(=O)Nc3cc(O[C@@H]4CCOC4)c(Cl)cn3)cn2)ccn1 [Compound 145, (R)-N-(5-chloro-4-((tetrahydrofuran-3-yl)oxy)pyridin-2-yl)-2-(2′-cyano-[2,4′-bipyridin]-5-yl)acetamide]
0.01 to 0.1	75		N#CN1CC=C(c2ccc(CC(=O)Nc3ccc(Cl)cn3)cn2)CC1 [Compound 4, N-(5-chloropyridin-2-yl)-2-(1′-cyano-1′,2′,3′,6′-tetrahydro-[2,4′-bipyridin]-5-yl)acetamide]
0.01 to 0.1	90		COc1cc(NC(=O)Cc2ccc(C3=CCCN(C#N)C3)cc2Cl)ncc1Cl [Compound 112, 2-(2-chloro-4-(1-cyano-1,2,5,6-tetrahydropyridin-3-yl)phenyl)-N-(5-chloro-4-methoxypyridin-2-yl)acetamide]
0.01 to 0.1	80		COc1cc(NC(=O)Cc2ccc(-c3cc(OC4COC4)cc(C#N)n3)nc2)ncc1Cl [Compound 184, N-(5-chloro-4-methoxypyridin-2-yl)-2-(6′-cyano-4′-(oxetan-3-yloxy)-[2,2′-bipyridin]-5-yl)acetamide]
< 0.01	93		CN1CC2(CC(Oc3cc(NC(=O)Cc4ccc(C5=CCCN(C#N)C5)nc4)ncc3Cl)C2)C1 [Compound 69, N-(5-chloro-4-((2-methyl-2-azaspiro[3.3]heptan-6-yl)oxy)pyridin-2-yl)-2-(1′-cyano-1′,2′,5′,6′-tetrahydro-[2,3′-bipyridin]-5-yl)acetamide]
0.01 to 0.1	94		COc1cc(NC(=O)Cc2ccc(C3=CCCN(C#N)C3)cn2)ncc1Cl [Compound 111, N-(5-chloro-4-methoxypyridin-2-yl)-2-(1′-cyano-1′,2′,5′,6′-tetrahydro-[3,3′-bipyridin]-6-yl)acetamide]
0.01 to 0.1	89		COc1cc(NC(=O)Cc2ccc(-c3cc(O[C@H]4CCOC4)cc(C#N)n3)nc2)ncc1Cl [Compound 196, (S)-N-(5-chloro-4-methoxypyridin-2-yl)-2-(6′-cyano-4′-((tetrahydrofuran-3-yl)oxy)-[2,2′-bipyridin]-5-yl)acetamide]
< 0.01	92		CC1CC(Oc2cc(NC(=O)Cc3ccc(C4=CCCN(C#N)C4)nc3)ncc2Cl)CCN1C (single isomer, unassigned) [Compound 64, N-(5-chloro-4-((1,2-dimethylpiperidin-4-yl)oxy)pyridin-2-yl)-2-(1′-cyano-1′,2′,5′,6′-tetrahydro-[2,3′-bipyridin]-5-yl)acetamide]
< 0.01		92	COc1cc(NC(=O)Cc2ccc(C3=CCN(C#N)CC3C)nc2)ncc1Cl (single isomer, unassigned) [Compound 72, N-(5-chloro-4-methoxypyridin-2-yl)-2-(1′-cyano-3′-methyl-1′,2′,3′,6′-tetrahydro-[2,4′-bipyridin]-5-yl)acetamide]
< 0.01	84		CN1CCC[C@@H](Oc2cc(NC(=O)Cc3ccc(C4=CCN(C#N)CC4)nc3)ncc2Cl)C1 [Compound 32, (R)-N-(5-chloro-4-((1-methylpiperidin-3-yl)oxy)pyridin-2-yl)-2-(1′-cyano-1′,2′,3′,6′-tetrahydro-[2,4′-bipyridin]-5-yl)acetamide]
< 0.01	93		COc1cc(NC(=O)Cc2ccc(C3=CCN(C#N)CC3C)nc2)ncc1Cl (single isomer, unassigned) [Compound 71, N-(5-chloro-4-methoxypyridin-2-yl)-2-(1′-cyano-3′-methyl-1′,2′,3′,6′-tetrahydro-[2,4′-bipyridin]-5-yl)acetamide]
